Test results published in patent publication US10100284B2, “Method for inducing differentiation of pluripotent stem cells into endodermal cells” (TOAGOSEI CO., LTD., priority 2013, dated 2018).
Where no end group is shown, it is not given here.

Key:
[1] = tested on: iPS cells (clone name: 201B2 or 201B7); assay: Quantitative RT-PCR of stem cell marker gene and germ layer differentiation marker genes in iPS cells; assay type: cell-based, human; settings: peptide concentration 6.0 μM, FIG. 3
Protocol: The stem cell differentiation-inducing activity of a differentiation-inducing synthetic peptide (Sample 1) obtained in Example 1 above was evaluated by measuring changes over time in the expressed amounts of a stem cell differentiation marker gene (that is, a stem cell marker gene) and differentiation marker genes for the three kinds of germ layer cells. iPS cells that had been cultured and passaged in vitro were used as the test cells. The specifics of the evaluation test were as follows.
iPS cells (clone name: 201B2 or 201B7) were cultured as in Example 2 except that Sample 1 that had been prepared with DMSO/EtOH=1/1 to a peptide concentration of 4 mM was added 1.5 μL/well (that is to a peptide concentration of 6.0 μM in the well). A peptide-free group was also established as a comparative example. The medium was replaced and peptide was added two days, four days and six days after initiation of iPS cell culture. […]
25 to […] of purified RNA was supplied to quantitative RT-PCR, and the expressed amounts of a stem cell marker gene and differentiation marker genes for the three kinds of germ layer cells were quantified. […] A One Step SYBR® PrimeScript® PLUS RT-PCR Kit (TaKaRa Bio) was used for the quantitative RT-PCR, in accordance with the attached manual. […] The quantitative RT-PCR reaction consisted of 5 minutes of incubation at 42° C. to perform reverse transcription, followed by 10 seconds of incubation at 95° C., and 40 cycles consisting of 5 seconds at 95° and 31 seconds at 63° C.
The quantitative results for expression of a stem cell marker gene and differentiation marker genes for the three kinds of germ layer cells are shown in FIG. 3. The expressed amounts of these genes were first corrected by the expressed amounts of the GAPDH gene in each test group, and the relative expressed amount of the gene in the Sample 1 group relative to the expressed amount of the gene in the peptide-free group was determined by the ΔΔCt method.

[2] = tested on: iPS cells (clone name: 201B2 or 201B7); assay: ALB ELISA of iPS cell culture supernatant; assay type: cell-based, human; settings: peptide concentration in medium 6 μM; as culture time increased; FIG. 4
Protocol: The stem cell differentiation-inducing activity of the differentiation-inducing synthetic peptide (Sample 1) obtained in Example 1 was evaluated by quantifying changes over time in the expressed amounts (typically extracellular secretion) of AFP and ALB, which are proteins known as markers of differentiation into endodermal cells. It is known that AFP is expressed in cells that have differentiated into liver precursor cells among the endodermal cells, while ALB is expressed in cells that have differentiated sufficiently to function effectively as hepatocytes (that is, hepatocytes or hepatocyte-like cells). […]
50 μL of the accessory Chromogen Substrate Solution (coloring reagent) was then added per well, and left standing for 15 minutes in the dark. […] Absorbance A450 at 450 nm and absorbance A550 at 550 nm were then measured with a spectrophotometer in the reaction liquid in the wells.
Absorbance values A(450-550) were calculated by subtracting the absorbance A550 from the absorbance A450 obtained by the previous measurement (that is, absorbance A(450-550)=[…]) for each of the samples from the AFP evaluation test group and ALB evaluation test group. […]

Q: “LLLLLLVGLTAPAGKKRTLRKNDRKKR-CONH2 (LLLLLLVGLTAPAGKKRTLRKNDRKKR-NH2) [Sample 1]” was tested. Which “increase in the relative expressed amount of the AFP gene” value ([1]; 20th day after initiation of culture) did it give?
A: particularly dramatic

Q: What about the “expression timing of endodermal cell marker genes SOX17, GATA4 and FOXA2” value [1] of the same substance?
A: sooner than the AFP gene

Q: What about the “relative expressed amount of the AFP gene (endodermal marker gene) relative to peptide-free group (ΔΔCt, GAPDH corrected)” value ([1]; beginning 13 days after initiation of culture) of the same substance?
A: increased much more than the relative expressed amounts of the other genes

Q: What about the “ALB level of the culture supernatant in comparison with peptide-free group with the same culture time” value [2] of the same substance?
A: increased dramatically
